A short description of data set [1]: Plasma binding, human plasma, ultracentrifugation. It counts as in vitro ADME. On the procedure:
For plasma binding, 2 μM P1 or Warfarin (positive control) were added to mouse or human plasma. After 30 minutes incubation at 37° C., samples where ultracentrifuged for 4 hours to generate protein-free samples for LCMS analysis. In parallel, plasma was incubated for 4.5 h to determine total levels after incubation. Plasma binding was calculated as % Bound=100*(1−F/T4.5), where F is concentration of free ligand and T4.5 is the concentration of total ligand after incubation.

Data set [2] is described as follows: Mouse brain homogenate stability. Format: in vitro ADME. As to conditions: 2 μM, read-out: T½ in brain homogenate. On the procedure: Mouse brain homogenate was incubated with 2 μM of P1 or 7-Ethoxycoumarin (positive control of degradation). Enzymatic reactions were stopped at timepoints between 0-240 min and samples analysed by LCMS. For test with protease inhibitors, brain homogenate was pre-incubated for 30 minutes with protease inhibitors prior to incubation with P1. For brain homogenate binding, 2 μM of P1 or propranolol (positive control) were added to mouse brain homogenate and incubated at 37° C. for 30 minutes. To prepare the protein-free samples (F samples) to be used for unbound determination, an aliquot of the pre-incubated matrix containing test compound or control compound was transferred to ultracentrifuge tubes and subjected to ultracentrifugation at 37° C., 35000 rpm for 4 hrs. In parallel, brain homogenate was incubated for 4.5 hrs to determine total levels after incubation.

Data set [3] deals with CYP450 enzymes. Kind of data set: Cytochrome P450 inhibition in liver microsomes. It counts as in vitro ADME. The note with it: dose-range of P1, with or without NADPH. On the procedure: Liver microsomes were prepared with cocktails of known substrates of the respective CYP450 enzymes to evaluate the effects of P1 on enzyme inhibition. For each CYP-enzyme a previously described inhibitor was used as a positive control. Sample solutions were pre-incubated with P1 (10 mM) or inhibitor at 37° C. for ten minutes before addition of NADPH. Enzyme activity was measured in samples containing a dose-range of P1 with or without NAPDH (substrate used by the liver enzymes in detoxification steps). Reactions were incubated for 10 minutes before the reactions were stopped and analysed by LCMS to detect CYP metabolites.
In general terms: Microsomes from liver hold many membrane-bound enzymes, among them those of drug oxidation.

The nature of data set [4]: Plasma stability, mouse plasma. Format: in vitro ADME. The note with it: 2 μM, 37° C. The procedure: Mouse or human plasma were incubated with 2 μM of P1 (SEQ ID NO: 1) or propantheline bromide (positive control for degradation) and left at 37° C. At each time point, stop solution was added to precipitate the solution and after mixing and centrifugation, supernatant was used for LCMS analysis.

Data set [5] deals with T1, hERG potassium channels (Homo sapiens, UniProt Q12809).
T1 construct: expressed in transfected cells
T1 sequence (Q12809 whole entry): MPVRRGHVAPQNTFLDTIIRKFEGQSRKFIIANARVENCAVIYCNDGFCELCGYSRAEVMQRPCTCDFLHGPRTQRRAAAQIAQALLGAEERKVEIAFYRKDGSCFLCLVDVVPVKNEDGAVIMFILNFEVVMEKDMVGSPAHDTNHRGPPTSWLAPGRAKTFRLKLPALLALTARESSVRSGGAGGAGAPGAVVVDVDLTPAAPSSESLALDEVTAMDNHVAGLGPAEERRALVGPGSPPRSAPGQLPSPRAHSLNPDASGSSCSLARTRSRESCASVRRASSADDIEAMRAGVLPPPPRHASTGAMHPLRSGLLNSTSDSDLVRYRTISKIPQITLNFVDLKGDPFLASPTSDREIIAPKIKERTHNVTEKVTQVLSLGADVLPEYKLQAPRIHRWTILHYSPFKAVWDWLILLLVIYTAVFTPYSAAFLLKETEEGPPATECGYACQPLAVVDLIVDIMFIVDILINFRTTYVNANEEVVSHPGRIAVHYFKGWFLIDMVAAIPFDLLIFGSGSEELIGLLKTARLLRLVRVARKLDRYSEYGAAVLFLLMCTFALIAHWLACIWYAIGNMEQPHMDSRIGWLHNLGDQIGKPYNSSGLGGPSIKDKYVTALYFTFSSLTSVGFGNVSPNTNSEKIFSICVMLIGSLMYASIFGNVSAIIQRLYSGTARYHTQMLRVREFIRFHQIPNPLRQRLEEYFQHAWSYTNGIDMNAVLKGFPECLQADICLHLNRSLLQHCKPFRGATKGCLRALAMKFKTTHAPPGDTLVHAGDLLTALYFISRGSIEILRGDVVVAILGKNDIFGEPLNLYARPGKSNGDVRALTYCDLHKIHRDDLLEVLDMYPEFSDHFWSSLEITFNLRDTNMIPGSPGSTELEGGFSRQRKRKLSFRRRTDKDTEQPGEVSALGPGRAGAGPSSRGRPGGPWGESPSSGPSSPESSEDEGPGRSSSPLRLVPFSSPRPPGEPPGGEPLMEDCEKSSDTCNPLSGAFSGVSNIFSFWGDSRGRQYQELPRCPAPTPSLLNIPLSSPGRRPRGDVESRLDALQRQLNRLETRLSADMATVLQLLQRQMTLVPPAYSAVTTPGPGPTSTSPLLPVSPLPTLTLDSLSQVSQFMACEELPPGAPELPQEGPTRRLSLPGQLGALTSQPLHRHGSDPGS
Kind of data set: hERG inhibition, manual patch-clamp in CHO cell line. As to conditions: 0.1-30 uM, room temperature. It counts as cell-based. On the procedure: P1 (0.1-30 uM) was evaluated in vitro in a concentration-response (relationship of the effect on electric current passing through hERG (human ether-à-go-go-related gene) potassium channels (a surrogate for IKr, the rapidly activating, delayed rectifier cardiac potassium current) stably expressed in a CHO cell line using a manual patch-clamp technique.
The hERG current was recorded at room temperature using whole-cell patch-clamp techniques. Output signals from the patch-clamp amplifier were digitized and low-pass filtered at 2.9 kHz. The recording was controlled with Patchmaster Pro software. The recording chamber with cells seeded was mounted on an inverted microscope stage. A cell in the recording chamber was randomly picked up for testing. The cell was continuously perfused from the perfusion system. A micropipette filled with ICS was used as recording electrode in the manual patch-clamp study. The micropipette was prepared on the day of the patchclamp experiment using glass capillaries (GC150TF-10, Harvard Apparatus Co., UK). From the holding potential of −80 mV, the voltage was increased to +60 mV for 850 ms to open the hERG channels. After that, the voltage was decreased to −50 mV for 1275 ms, causing a “rebound” or tail current, the peak tail current was measured and collected for data analysis. Finally, the voltage was decreased to the holding potential (−80 mV). […]
On the technique in general: The hERG channel carries a current that helps repolarise heart muscle cells.

Data set [6] has as its system SH-SY5Y cells. Kind of data set: Lysosomal acidification in SH-SY5Y cells, LysoSensor Yellow/Blue DND-160. Format: cell-based, human. The note with it: 1 uM, 4 hours. On the procedure:
SH-SY5Y were seeded in poly-L coated black 96 well plate with clear bottom at a density of ˜3×10^4. The following day, the cells were stimulated with 1 uM P1 (SEQ ID NO: 1) for 4 hours and subsequently incubated with LysoSensor™ Yellow/Blue DND-160 (10 uM) for 20 min. Cells were rinsed with PBS and excitation 340 & 380 and emission 535 was read in a plate-reader. A pH calibration curve buffer was likewise measured. Calculation of the fluorescence intensity ratio of excitation (340/380) results in an average whole-cell intraorganellar pH reflective of all LysoSensor™ Yellow/Blue DND-160-labeled organelles combined. Using the generated linear trendline from the standard curve for pH and 340/380 intensity ratio, calculate the intraorganellar pH of samples.

Data set [7] has as its system CREB. Kind of data set: CREB activation (phosphorylation on serine 133) in wild-type cortical neurons, western blotting. Format: cell-based, mouse. The note with it: 20 minutes, 7 days in vitro. On the procedure: (§1) To assess the ability of peptides P1, P2 and P6, respectively, to activate transcription factor CREB, cortical neurons were isolated from p0 wild-type mice and seeded in a density of 500.000 per well. After 7 days in vitro the neurons were stimulated with the different peptide variants at 1 uM in neurobasal A media and incubated at 37° C. and 5% C02 for 20 minutes. Hereafter, the neurons were lysed in lysis buffer containing DTT and cOmplete cocktail protease inhibitor and subsequently sonicated to disrupt the nuclear membrane. The phosphorylation of CREB on serine 133 was validated by western blotting normalized to beta-actin. As control, cells were stimulated with a scrambled peptide (Scr). Student's t-test was used for statistical analysis.
as §1, with “The” for “To assess the”, “peptide P1” for “peptides P1, P2”, “a linear peptide analog of P1 with acetylated N- and amidated C-terminals (referred to as LP1)” for “P6, respectively,”, “CREB was assessed. Cortical” for “CREB, cortical”, “20 nM” for “1 uM”, “CO2” for “C02”
On the technique in general: A western blot detects proteins with antibodies after separation by electrophoresis.

For data set [8] the following is noted: 2 μM, up to 60 minutes.
Protocol: S9 fractions from 5 different species were incubated with 2 μM P1 (SEQ ID NO: 1) or 7-Ethoxycoumarin (positive control for clearance) and necessary reactants for up to 60 minutes at 37° C. Reactions were stopped and samples were analysed by LCMS.

Where a SMILES comes first, the peptide text is derived from it.

The compound `CSCC[C@@H]1NC(=O)[C@H](C(C)C)NC(=O)[C@H](CC(=O)O)NC(=O)[C@H](CCC(=O)O)NC(=O)[C@H](CCC(=O)O)NC(=O)[C@H](Cc2c[nH]cn2)NC(=O)[C@H](CCC(=O)O)NC(=O)[C@H](C(C)C)NC(=O)[C@@H]2CCCN2C(=O)[C@H](CCC(=O)O)NC(=O)[C@H]([C@@H](C)O)NC1=O` [Peptide P1, [MTEPVEHEEDV]] (cyclo(MTEPVEHEEDV)) displayed a plasma binding in data set [1] (2 μM) of 20%. In addition, the fraction unbound at 30 min, 2 μM in data set [1] (read-out: compound unbound in plasma) was above 0.75. In addition, the half-life is 4.08 h in data set [2] and above 4.82 h in data set [4]. The CYP-inhibition entry in data set [3] is “no CYP-inhibition effects”. In addition, the “effect on hERG current” value in data set [5] was “no effect on hERG current”. The 340/380 intensity ratio entry in data set [6] is “reduction”. In data set [6], the “drop in lysosomal pH” value was around 0.2 pH. For the same compound, the “activation of CREB (phosphorylation on serine 133) compared to scrambled peptide” value is given as “activated CREB” in data set [7] (20 nM) and “markedly activated CREB” in data set [7] (1 uM). The “clearance and stability in liver S9 fractions” value in data set [8] (5 different species) is “low clearance and high stability”. The “stability in mouse and human S9 liver fractions” value in data set [8] (mouse and human) is reported as “some stability is lost”.

Values taken from patent publication US20230312652A1, “NOVEL PEPTIDES AND USES THEREOF” (Aarhus Universitet, priority 2020, published 2023).
